This is an account of results in patent publication US20050209198A1, “Pharmaceutical composition comprising a bisphosphonate and a cox-2 inhibitor for the treatment of bone diseases” (priority 2002, published 2005).

Experiment [1] has as its system patients with postmenopausal osteoporosis. Kind of experiment: Pain scores and general well being in the same trial, oral COX-2 inhibitor vs oral placebo. It is filed as in vivo. The settings on record: 400 mg per day p.o. vs oral placebo, on zoledronic acid or placebo background.
Procedure: (§1) A dose and dose regimen-finding 24 months trial of iv zoledronic acid in patients with postmenopausal osteoporosis is carried out. Three hundred and fifty one patients are randomized to six study arms. […] All patients are evaluated at baseline and in 3-monthly visits. Zoledronic acid or placebo was administered as a bolus iv injection into a peripheral vein over 5 minutes at every visit. Patients from both zoledronic acid treated and placebo groups also receive an oral COX-2 inhibitor (5-methyl-2-(2′-chloro-6′-fluoroanilino)phenylacetic acid—400 mg per day p.o.) or oral placebo.
(§2) Efficacy is ascertained by measurement of percent change from baseline in bone mineral density (BMD) measured by dual energy X-ray absorptiometry (DEXA) as compared to placebo, at 6, 9, and 12 months. Patients also maintain records of pain scores on a once weekly basis and are monitored for pain scores at the 3-monthly visits.
Experiment [2] has the same test system. In words: 24 months trial of iv zoledronic acid, bone mineral density (BMD) by DEXA. It is filed as in vivo. The settings on record: bolus iv, dose administration as infrequent as every 6 or 12 months, compared to placebo.
Procedure: as §1, §2
• Placebo • 0.25 mg zoledronic acid every 3 months • 0.5 mg zoledronic acid every 3 months • 1.0 mg zoledronic acid every 3 months • 2.0 mg zoledronic acid every 6 months • 4.0 mg zoledronic acid every 12 months each with 50% COX-2 treatment and 50% oral placebo.

Consider `Cc1ccc(Nc2c(F)cccc2Cl)c(CC(=O)O)c1` [COX-2, 5-methyl-2-(2′-chloro-6′-fluoroanilino)phenylacetic acid], for which, in experiment [1], the “pain scores and general well being of patients” value is recorded as “show improvement over the oral placebo treated groups”.
Turning to `O=P(O)(O)C(O)(Cn1ccnc1)P(=O)(O)O` [zoledronic acid, 1-hydroxy-2-(imidazol-1-yl)ethane-1,1-diphosphonic acid], the “bone mineral density (BMD), bone mass change” value in experiment [2] is “statistically significant and medically relevant bone mass increase”.
